The values below come from BindingDB's records for doi:10.3109/14756361003698147 (Shandong University, 2012).

Molecules are shown by their SMILES. Where a name gives a salt, the structure may show the parent alone.

The target in test [1] is 72 kDa type IV collagenase (Homo sapiens, UniProt P08253). The test can be described thus: In Vitro MMP-2 Inhibition Assay. The settings on record: pH 8.5; 25 °C.
In a further test the target is T1, Aminopeptidase N (Sus scrofa, UniProt P15145).
T1 sequence (P15145 whole entry): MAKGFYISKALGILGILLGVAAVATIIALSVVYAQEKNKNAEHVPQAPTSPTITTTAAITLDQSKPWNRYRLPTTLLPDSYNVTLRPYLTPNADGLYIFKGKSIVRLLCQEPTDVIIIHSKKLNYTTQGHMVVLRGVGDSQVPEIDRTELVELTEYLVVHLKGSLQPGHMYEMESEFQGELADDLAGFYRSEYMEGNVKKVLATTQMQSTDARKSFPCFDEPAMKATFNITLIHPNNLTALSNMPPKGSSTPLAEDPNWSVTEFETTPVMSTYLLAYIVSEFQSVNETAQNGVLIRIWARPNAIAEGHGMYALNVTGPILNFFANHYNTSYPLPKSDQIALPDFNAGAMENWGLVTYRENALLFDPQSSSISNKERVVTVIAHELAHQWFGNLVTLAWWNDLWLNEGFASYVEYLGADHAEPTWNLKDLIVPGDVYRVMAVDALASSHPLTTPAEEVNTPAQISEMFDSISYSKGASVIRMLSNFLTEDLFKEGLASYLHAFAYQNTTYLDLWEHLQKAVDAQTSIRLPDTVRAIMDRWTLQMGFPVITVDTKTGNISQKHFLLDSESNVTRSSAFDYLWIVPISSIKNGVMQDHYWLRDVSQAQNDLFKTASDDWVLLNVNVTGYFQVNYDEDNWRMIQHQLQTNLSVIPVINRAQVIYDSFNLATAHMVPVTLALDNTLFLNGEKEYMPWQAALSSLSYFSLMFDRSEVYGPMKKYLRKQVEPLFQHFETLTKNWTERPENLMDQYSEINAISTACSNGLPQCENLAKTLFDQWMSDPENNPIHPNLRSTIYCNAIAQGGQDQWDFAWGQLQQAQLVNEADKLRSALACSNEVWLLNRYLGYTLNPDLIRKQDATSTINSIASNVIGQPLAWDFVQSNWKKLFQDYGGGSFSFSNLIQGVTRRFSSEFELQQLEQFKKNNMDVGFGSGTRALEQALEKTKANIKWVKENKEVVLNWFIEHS
The test can be described thus: In Vitro APN Inhibition Assay. Here is the method:
Allcompounds were pre-incubated with APN on a 96-well plate for 30 min. […] Fifteen minutes later, the absorbance (OD405) of the wells was recorded on a microplate reader.

72 kDa type IV collagenase, sequence (P08253 whole entry): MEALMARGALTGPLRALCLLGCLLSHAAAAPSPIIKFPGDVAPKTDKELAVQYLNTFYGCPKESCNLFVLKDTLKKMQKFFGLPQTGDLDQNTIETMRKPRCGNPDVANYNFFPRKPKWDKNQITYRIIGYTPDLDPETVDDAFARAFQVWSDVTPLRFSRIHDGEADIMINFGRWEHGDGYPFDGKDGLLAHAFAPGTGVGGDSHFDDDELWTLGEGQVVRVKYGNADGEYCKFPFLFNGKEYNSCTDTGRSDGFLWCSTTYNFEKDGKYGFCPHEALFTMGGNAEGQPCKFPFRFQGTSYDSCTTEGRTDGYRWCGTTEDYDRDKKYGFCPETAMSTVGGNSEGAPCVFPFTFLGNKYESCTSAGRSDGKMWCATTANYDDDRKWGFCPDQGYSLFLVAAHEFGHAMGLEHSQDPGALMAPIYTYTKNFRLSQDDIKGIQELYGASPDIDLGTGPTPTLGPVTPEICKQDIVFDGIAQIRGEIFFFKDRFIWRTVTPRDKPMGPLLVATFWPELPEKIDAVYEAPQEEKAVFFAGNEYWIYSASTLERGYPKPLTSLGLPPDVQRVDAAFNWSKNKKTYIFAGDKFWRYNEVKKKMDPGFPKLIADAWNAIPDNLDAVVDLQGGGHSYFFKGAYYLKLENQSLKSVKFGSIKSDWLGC

What is called IC50 is the concentration needed to halve the response being measured. Low values mean inhibition by little substance, high ones a need for much substance. For the compound `CC(C)C[C@H](NC(=O)[C@@H](O)[C@H](N)Cc1ccccc1)C(=O)O`, in test [1], the midpoint of inhibition, the IC50, lay at 167 µM.

As for `CC(C)C[C@H](NC(=O)[C@@H](O)CN)C(=O)O`, the IC50 is 199 µM at Aminopeptidase N and 364 µM in test [1].

`CC(C)C[C@H](NC(=O)[C@H](Cc1ccccc1)NC(=O)[C@@H](O)CN)C(=O)O` [L-Isoseryl-L-phenylalanyl-L-leucine hydrochloride (14b)]: the figures for the IC50 (at Aminopeptidase N; in test [1]) were 12.2 µM and 203 µM, respectively.

For the compound `COC(=O)[C@H](Cc1ccccc1)NC(=O)[C@H](CC(C)C)NC(=O)[C@@H](O)CN` [L-Isoseryl-L-leucyl-L-phenylalanine methyl ester hydrochloride (13a)], the concentration for half-maximal inhibition (IC50) on Aminopeptidase N turned out to be 140 µM; in test [1] it was 126 µM.

Consider `CC(C)C[C@H](NC(=O)[C@@H](O)CN)C(=O)OCc1ccccc1` [L-Isoseryl-L-leucine benzyl ester hydrochloride (11d)], for which the half-maximal inhibitory concentration (IC50) at Aminopeptidase N stood at 195 µM; in test [1], 1000 µM.

Take `COC(=O)[C@H](CC(C)C)NC(=O)[C@@H](O)CN` [L-Isoseryl-L-leucine methyl ester hydrochloride (11b)]: the IC50 was 229 µM on Aminopeptidase N and 682 µM in test [1].

Turning to `NC[C@H](O)C(=O)N[C@@H](Cc1ccccc1)C(=O)OCc1ccccc1` [L-Isoseryl-L- phenylalanine benzyl ester hydrochloride (11c)], the 50% inhibitory concentration (IC50) against Aminopeptidase N was 99.5 µM; in test [1], 329 µM.

Regarding `CC(C)C[C@H](NC(=O)[C@H](Cc1ccccc1)NC(=O)[C@@H](O)CN)C(=O)OCc1ccccc1` [L-Isoseryl-L-phenylalanyl-L-leucine benzyl ester hydrochloride (13d)], the IC50 at Aminopeptidase N was 32.2 µM; in test [1], 334 µM.

For `NC[C@H](O)C(=O)N[C@@H](Cc1ccccc1)C(=O)O` [(2S)-2-[(2S)-3-amino-2-hydroxypropanamido]-3-phenylpropanoic acid (12a)], the IC50 at Aminopeptidase N came to 249 µM; in test [1], 710 µM.

Take `CC(C)C[C@H](NC(=O)[C@@H](O)CN)C(=O)N[C@@H](Cc1ccccc1)C(=O)O` [L-Isoseryl-L-leucyl-L-phenylalanine hydrochloride (14a)]: the IC50 against Aminopeptidase N was 20.9 µM; in test [1], 115 µM.

For the compound `COC(=O)[C@H](Cc1ccccc1)NC(=O)[C@@H](O)CN` [Methyl (2S)-2-[(2S)-3-amino-2-hydroxypropanamido]-3-phenylpropanoate (11a)], the figures for the IC50 (at Aminopeptidase N; in test [1]) were 302 µM and greater than 1000 µM, respectively.
